Tests used:
Microsporum audouinni [1] = experiment: Direct addition method, solid compound in Sabouraud dextrose agar; format: cell-based, Microsporum audouinii; parameters: key to Fungal growth: +++: Maximum Fungal Growth; ++: Moderate Fungal Growth; +: Minimum Fungal Growth; +/−: Very little Fungal Growth; −: No Fungal Growth; settings: for Fungal growth: 4 mg/mL of agar, 12th day after inoculation
How it was run: (§1)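 Fungal growth read at day 12; scored every 2nd day over 10-12 days at 25-28° C. Compound added as solid to molten Sabouraud dextrose agar (45° C.), final 4 mg/ml; agar slanted, then inoculated.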

Microsporum audouinni [2] = experiment: Agar dilution method, growth on Sabouraud dextrose agar slants; format: cell-based, Microsporum audouinii; parameters: key: +++: Maximum Fungal Growth; ++: Moderate Fungal Growth; +: Minimum Fungal Growth; +/−: Very little Fungal Growth; −: No Fungal Growth; settings: 12th day after inoculation
How it was run: (§2)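 Compound in DMSO was mixed into molten Sabouraud dextrose agar at 45 °C to the final test concentrations, then set as slants and inoculated with the fungal culture. Slants were incubated 10–12 days at 25–28 °C, with growth scored every second day.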

Epidermophyton floccosum [3] = experiment: as above; format: cell-based; parameters: key to Fungal growth: +++: Maximum Fungal Growth; ++: Moderate Fungal Growth; +: Minimum Fungal Growth; +/−: Very little Fungal Growth; −: No Fungal Growth; settings: 12th day after inoculation
How it was run: as §2

Trichophyton rubrum [4] = experiment: Direct addition method, solid compound in Sabouraud dextrose agar; format: cell-based; settings: against Trichophyton rubrum
Procedure: (§3) Direct addition method. Sabouraud dextrose agar was prepared according to the manufacturer's instructions and 5.0 ml was dispensed in each 100×25 mm tube. The tubes were autoclaved. To each tube containing 5.0 ml of liquid agar at 45° C., 20 mg of solid test compound was added, to give a final concentration of 4 mg/ml. The agar was solidified in slants. The fungal cultures were then innoculated. The slants were incubated at 25-28 ° C. for 10-12 days, and the growth of the fungus was recorded every second day. The results in Table 2 indicate growth at the 12th day of inoculation.

Microsporum audouinii = experiment: Summary of anti-fungal assays (direct addition, agar dilution, liquid culture); format: cell-based; settings: stated in words (Tables 1a/1b, text to Table 5)
Procedure: (§4) This example summarizes the results of various other assays of the anti-fungal activity of betulin derivatives. Table 5 summarizes results using different assay methods—direct addition, agar dilution, and direct addition to liquid culture, as disclosed in the previous three Examples. In some cases, only one type of assay was done with a compound. In other cases, the compound was tested by multiple assays.

[5] = system: Trichophyton mentagrophyte; experiment: Agar dilution method, growth on Sabouraud dextrose agar slants; format: cell-based, Trichophyton mentagrophytes; parameters: key to Fungal growth: +++: Maximum Fungal Growth; ++: Moderate Fungal Growth; +: Minimum Fungal Growth; +/−: Very little Fungal Growth; −: No Fungal Growth; settings: 12th day after inoculation
How it was run: as §2

herpes simplex virus = settings: cited from earlier work
Microsporum canis [6] = experiment: Agar dilution method, growth on Sabouraud dextrose agar slants; format: cell-based; parameters: key: +++: Maximum Fungal Growth; ++: Moderate Fungal Growth; +: Minimum Fungal Growth; +/−: Very little Fungal Growth; −: No Fungal Growth; settings: 12th day after inoculation
How it was run: as §2

Microsporum gypseum [7] = experiment: as above; format: cell-based; parameters: key: +++: Maximum Fungal Growth; ++: Moderate Fungal Growth; +: Minimum Fungal Growth; +/−: Very little Fungal Growth; −: No Fungal Growth; settings: 12th day after inoculation
How it was run: as §2

Pityrosporum ovale [8] = experiment: as above; format: cell-based; parameters: key: +++: Maximum Fungal Growth; ++: Moderate Fungal Growth; +: Minimum Fungal Growth; +/−: Very little Fungal Growth; −: No Fungal Growth; settings: 12th day after inoculation
How it was run: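 SDA slants containing test compound (added from DMSO solution into 45 °C agar); inoculated with fungal culture; 25-28 °C, 10-12 d; growth read every 2nd day.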

Trichophyton rubrum [9] = experiment: as above; format: cell-based; parameters: key: +++: Maximum Fungal Growth; ++: Moderate Fungal Growth; +: Minimum Fungal Growth; +/−: Very little Fungal Growth; −: No Fungal Growth; settings: 12th day after inoculation
How it was run: as §2

Trichophyton tonsuran [10] = experiment: as above; format: cell-based, Trichophyton tonsurans; parameters: key: +++: Maximum Fungal Growth; ++: Moderate Fungal Growth; +: Minimum Fungal Growth; +/−: Very little Fungal Growth; −: No Fungal Growth; settings: 12th day after inoculation
How it was run: as §2

[11] = system: Trichophyton mentagrophytes; experiment: Direct addition method, solid compound in Sabouraud dextrose agar; format: cell-based; parameters: key: +++: Maximum Fungal Growth; ++: Moderate Fungal Growth; +: Minimum Fungal Growth; +/−: Very little Fungal Growth; −: No Fungal Growth; settings: 4 mg/mL of agar; 12th day after inoculation
How it was run: as §1

Epidermophyton floccosum [12] = experiment: as above; format: cell-based; parameters: key: +++: Maximum Fungal Growth; ++: Moderate Fungal Growth; +: Minimum Fungal Growth; +/−: Very little Fungal Growth; −: No Fungal Growth; settings: 4 mg/mL of agar; 12th day after inoculation
How it was run: as §1

Microsporum canis [13] = experiment: as above; format: cell-based; parameters: key: +++: Maximum Fungal Growth; ++: Moderate Fungal Growth; +: Minimum Fungal Growth; +/−: Very little Fungal Growth; −: No Fungal Growth; settings: 4 mg/mL of agar; 12th day after inoculation
How it was run: as §1

Microsporum gypseum [14] = experiment: as above; format: cell-based; parameters: key: +++: Maximum Fungal Growth; ++: Moderate Fungal Growth; +: Minimum Fungal Growth; +/−: Very little Fungal Growth; −: No Fungal Growth; settings: 4 mg/mL of agar; 12th day after inoculation
How it was run: as §1

Pityrosporum ovale [15] = experiment: as above; format: cell-based; parameters: key: +++: Maximum Fungal Growth; ++: Moderate Fungal Growth; +: Minimum Fungal Growth; +/−: Very little Fungal Growth; −: No Fungal Growth; settings: 4 mg/mL of agar; 12th day after inoculation
How it was run: as §1

Trichophyton rubrum [16] = experiment: as above; format: cell-based; parameters: key: +++: Maximum Fungal Growth; ++: Moderate Fungal Growth; +: Minimum Fungal Growth; +/−: Very little Fungal Growth; −: No Fungal Growth; settings: 4 mg/mL of agar; 12th day after inoculation
How it was run: as §1

Trichophyton tonsuran [17] = experiment: as above; format: cell-based, Trichophyton tonsurans; parameters: key: +++: Maximum Fungal Growth; ++: Moderate Fungal Growth; +: Minimum Fungal Growth; +/−: Very little Fungal Growth; −: No Fungal Growth; settings: 4 mg/mL of agar; 12th day after inoculation
Procedure: as §3

Microsporum canis [18] = experiment: as above; format: cell-based; settings: against Microsporum canis
Procedure: as §3

Microsporum canis [19] = experiment: as above; format: cell-based; parameters: key: +++: Maximum Fungal Growth; ++: Moderate Fungal Growth; +: Minimum Fungal Growth; +/−: Very Little Fungal Growth; −: No Fungal Growth; settings: 4 mg/mL of agar; 12th day after inoculation
Procedure: as §3

Pityrosporum ovale [20] = experiment: Direct addition into the Pityrosporum agar; format: cell-based; parameters: key to Pityrosporum ovale growth: +++: Maximum Growth; ++: Moderate Growth; +: Minimum Growth; +/−: Very Little Growth; −: No Growth; settings: 4 mg/ml in the agar; 18 hours after inoculation
Procedure: as §3, with “The slants were incubated at 25-28 ° C. for 10-12 days, and the growth of the fungus was recorded every second day. The results in Table 2 indicate growth at the 12th day of inoculation.” left out

[21] = system: Trichophyton mentagrophytes; experiment: Summary of anti-fungal assays (direct addition, agar dilution, liquid culture); format: cell-based; settings: stated in words (Tables 1a/1b, text to Table 5)
Procedure: as §4

Epidermophyton floccosum [22] = experiment: as above; format: cell-based; settings: stated in words (Tables 1a/1b, text to Table 5); listed as betulin-3,28-dioxalate-3,28-polyethyleneimine
Procedure: as §4

Trichophyton tonsurans = experiment: as above; format: cell-based; settings: stated in words (Tables 1a/1b, text to Table 5)
Procedure: as §4

Candida albicans = experiment: as above; format: cell-based; settings: stated in words (Tables 1a/1b, text to Table 5)
Procedure: as §4

Blastomyces dermatidis = experiment: as above; format: cell-based; settings: stated in words (Tables 1a/1b, text to Table 5)
Procedure: as §4

Microsporum gypseum [23] = experiment: as above; format: cell-based; settings: stated in words (Tables 1a/1b, text to Table 5)
Procedure: as §4

Crytococcus neoformans = experiment: as above; format: cell-based, Cryptococcus neoformans; settings: stated in words (Tables 1a/1b, text to Table 5)
Procedure: as §4

## C=C(C)[C@@H]1CC[C@]2(CO)CC[C@]3(C)[C@H](CC[C@@H]4[C@@]5(C)CC[C@H](O)C(C)(C)[C@@H]5CC[C@]43C)[C@@H]12 [Betulin, lup-20(29)-ene-3,28-diol]
Microsporum audouinni [1]
  Fungal growth: −
Microsporum audouinni [1]; against Microsporum audouinii
  best anti-fungal or anti-yeast activity by the direct addition method: against Microsporum audouinii
Microsporum audouinni [2]; 12.5 μg/ml
  Fungal growth: +/−
Microsporum audouinni [2]; 25 μg/ml
  Fungal growth: +/−
Microsporum audouinni [2]; 50 μg/ml
  Fungal growth: −
Microsporum audouinni [2]; 100 μg/ml
  Fungal growth: −
Epidermophyton floccosum [3]; 12.5 μg/ml
  Fungal growth: +
Epidermophyton floccosum [3]; 25 μg/ml
  Fungal growth: +
Epidermophyton floccosum [3]; 50 μg/ml
  Fungal growth: −
Epidermophyton floccosum [3]; 100 μg/ml
  Fungal growth: −
Trichophyton rubrum [4]
  best anti-fungal or anti-yeast activity by the direct addition method: against Trichophyton rubrum
Microsporum audouinii
  Active against Microsporum audouinii: Microsporum audouinii,
[5]; 12.5 μg/ml
  Fungal growth: ++
[5]; 25 μg/ml
  Fungal growth: +
[5]; 50 μg/ml
  Fungal growth: +/−
[5]; 100 μg/ml
  Fungal growth: −
Herpes simplex virus
  Anti-viral activity against herpes simplex virus: anti-viral activity
Microsporum canis [6]; 12.5 μg/ml
  Fungal growth: ++
Microsporum canis [6]; 25 μg/ml
  Fungal growth: +
Microsporum canis [6]; 50 μg/ml
  Fungal growth: +/−
Microsporum canis [6]; 100 μg/ml
  Fungal growth: −
Microsporum gypseum [7]; 12.5 μg/ml
  Fungal growth: +++
Microsporum gypseum [7]; 25 μg/ml
  Fungal growth: ++
Microsporum gypseum [7]; 50 μg/ml
  Fungal growth: ++
Microsporum gypseum [7]; 100 μg/ml
  Fungal growth: −
Pityrosporum ovale [8]; 12.5 μg/ml
  Fungal growth: +++
Pityrosporum ovale [8]; 25 μg/ml
  Fungal growth: +++
Pityrosporum ovale [8]; 50 μg/ml
  Fungal growth: ++
Pityrosporum ovale [8]; 100 μg/ml
  Fungal growth: +/−
Trichophyton rubrum [9]; 12.5 μg/ml
  Fungal growth: ++
Trichophyton rubrum [9]; 25 μg/ml
  Fungal growth: ++
Trichophyton rubrum [9]; 50 μg/ml
  Fungal growth: +
Trichophyton rubrum [9]; 100 μg/ml
  Fungal growth: −
Trichophyton tonsuran [10]; 12.5 μg/ml
  Fungal growth: +++
Trichophyton tonsuran [10]; 25 μg/ml
  Fungal growth: ++
Trichophyton tonsuran [10]; 50 μg/ml
  Fungal growth: ++
Trichophyton tonsuran [10]; 100 μg/ml
  Fungal growth: −
[11]
  Fungal growth: ++
Epidermophyton floccosum [12]
  Fungal growth: −
Microsporum canis [13]
  Fungal growth: +
Microsporum gypseum [14]
  Fungal growth: ++
Pityrosporum ovale [15]
  Fungal growth: −
Trichophyton rubrum [16]
  Fungal growth: −
Trichophyton tonsuran [17]
  Fungal growth: ++

## C=C(C)[C@@H]1CC[C@]2(COC(=O)CN)CC[C@]3(C)[C@H](CC[C@@H]4[C@@]5(C)CC[C@H](OC(=O)CN)C(C)(C)[C@@H]5CC[C@]43C)[C@@H]12 [Betulin-3,28-diglycine]
Microsporum audouinni [1]
  Fungal growth: +
Microsporum canis [18]
  best anti-fungal or anti-yeast activity by the direct addition method: against Microsporum canis
Microsporum canis [19]
  Fungal growth: +/−
Pityrosporum ovale [20]
  Pityrosporum ovale growth: +
Epidermophyton floccosum [12]
  Fungal growth: −
Pityrosporum ovale [15]
  Fungal growth: −
Trichophyton rubrum [16]
  Fungal growth: +

## Betulin-3,28-dioxalate-3,28-polyethyleneimine
[21]
  Active against Trichophyton mentagrophytes: Trichophyton mentagrophytes,
Epidermophyton floccosum [22]
  Active against Epidermophyton floccosum: against Epidermophyton floccosum
Trichophyton tonsurans
  Active against Trichophyton tonsurans: Trichophyton tonsurans,
Candida albicans
  Active against Candida albicans: Candida albicans,
Blastomyces dermatidis
  Active against Blastomyces dermatidis: against Blastomyces dermaidis
Microsporum gypseum [23]
  Active against Microsporum gypseum: Microsporum gypseum,
Microsporum audouinii
  Active against Microsporum audouinii: Microsporum audouinii,
Crytococcus neoformans
  Active against Cryptococcus neoformans: against Crytococcus neoformans

— patent US6642217B2, “Triterpenes having human antifungal and antiyeast activity” (Naturtek, LLC, priority 2000, dated 2003)
